{"source": "paper PMC5650372", "about": "(Oncotarget, 2017)", "key": {"[1]": {"test_system": "NHEJ in intact cells of different cell lines", "test": "Cellular NHEJ assay, summary over cell lines", "type": "cell-based", "conditions": "Homo sapiens; range over different cell lines (Table 1); read-out: potency against NHEJ in intact cells", "procedure": "(§1) deficient cell growth in vitro […]\n(§2) incorporated in the corresponding no inhibitor control mTOR, DNA-PK and PI3K-alpha assays were to determine percent inhibition. An IC50 value was then performed as reported previously. estimated.\n(§3) ATM and ATR assay and IC50 determination Cellular NHEJ assay\n(§4) HA-ATM and FLAG-ATR (HA-labeled ATM, and The experimental design is illustrated in FLAG-labeled ATR) were each transiently expressed in Supplementary Figure 4. Cal-51 breast cancer cells HEK293 cells (293FT cells, Invitrogen Cat: R700-07) were separately transfected with pEGFP plasmid (6085-using Lipofectamine as transfection reagent. Cells were 1, Clontech, Mountain View, CA) digested with either harvested 6 days post transfection and spun down to EcoRI (to measure NHEJ) or StuI (to measure transfection separate cells from media. Cells were then lysed using a efficiency) using a Amaxa cell line nuclearfector kit V lysis buffer (50 mM Tris buffer, (Tris(hydroxylmethyl)- (CCA-1003, Lonza). Immediately after the transfection, aminomethane, pH 7.5), 100 mM NaCl, 50 mM βGOP, the cells were treated with DMSO or compounds at 10% Glycerol, 0.5% Tween 20, 1 mM EDTA, 25 mM indicated concentrations for 24 hours and GFP-positive sodium fluoride (NaF), 20 nM microcystine, 2 mM cells were counted under a fluorescent microscope. […]"}, "[2]": {"test_system": "pATM S1981 and pNbs1 S343 in HT29 and MDA-MB-436 cells", "test": "Immunoblotting of intact cells with bleomycin", "type": "cell-based, human", "conditions": "5 μM with 1.5 mU/mL bleomycin, 2 or 12 hours"}, "[3]": {"test_system": "pDNA-PK S2056 in HT29 and MDA-MB-436 cells", "test": "Immunoblotting of intact cells with bleomycin", "type": "cell-based, human", "conditions": "5 μM with 1.5 mU/mL bleomycin, 2 or 12 hours", "procedure": "The cell lysates were subjected to SDS-PAGE and immunoblotting with indicated antibodies. […] The pDNA-PK bands were quantified by Odyssey imaging software (LI-COR, Lincoln, NE) and normalized to total DNA-PK. IC50 values were determined by Excelfit (London, UK)."}, "[4]": {"test_system": "pS6 S235/236 in NCI-H441 cells", "test": "Western blot quantitation of pS6 S235/236 (mTORC1 biomarker)", "type": "cell-based", "conditions": "Homo sapiens; NCI-H441, presence of bleomycin, 2 hrs, n=3; read-out: IC50 of pS6 S235/236 inhibition"}, "[5]": {"test_system": "NHEJ activity", "test": "Reconstituted cell-free NHEJ assay (MCF7 nuclear extract)", "type": "biochemical, human", "procedure": "MCF7 human breast cancer cells (5-10 x 10^7 each) were incubated in 5 pellet volumes of cold hypotonic buffer (10 mM Hepes-KOH, pH 7.5, 1.5 mM MgCl2, 5 mM KCl, and 0.5 mM DTT) for 20 minutes and were homogenized in a tight-fitting glass dounce homogenizer for 10-20 strokes. The nuclei were then collected by low-speed centrifugation and nuclear proteins were extracted by high-salt buffer (50 mM Tris-HCl, pH 7.5, 1 M KCl, 2 mM EDTA, 1 mM DTT, and protease inhibitors). The extracted nuclear proteins were dialyzed against 1 L of dialysis buffer (20 mM Tris-HCl, pH 8.0, 20% glycerol, 0.1 M KOAc, 0.5 mM EDTA, and 1 mM DTT) for 1 hour and were used for the in vitro NHEJ assay.\n(§5) Nuclear protein (10-20 μg) prepared above was pre-treated with compounds as indicated on ice for 15 minutes. Twenty-five nanograms of EcoRI-digested pBluescript DNA (Stratagene, La Jolla, CA) were then added and the mixture was adjusted to 20 μL final volume in NHEJ buffer (50 mM Hepes-KOH pH 8.0, 40 mM KOAc, 1 mM Mg(OAc)2, 1 mM ATP, 0.1 mg/mL BSA, and 1 mM DTT). After incubation at 25°C for 60 minutes, the reaction was terminated by incubation with 1 μg/mL RNase A for 10 minutes followed by treatment with 2 mg/mL Protease K in 0.5% SDS at 55°C for 30 minutes. The reactions were run onto 0.8% agarose and the gel was stained with Sybr Green (S756, Invitrogen, Carlsbad, CA). For Western blots, an aliquot of the same reaction mixture described above was subjected to SDS-PAGE, transferred to the PVDF membrane, and immunoblotted with indicated antibodies."}, "[6]": {"test_system": "pDNA-PK S2056", "test": "Western blot of cell-free NHEJ reaction (MCF7 nuclear extract)", "type": "biochemical, human", "procedure": "as §5"}, "[7]": {"test_system": "pChk2 T68", "test": "Western blot of cell-free NHEJ reaction (MCF7 nuclear extract)", "type": "biochemical, human", "conditions": "MCF7 nuclear extract, 0.05, 0.5 or 5 μM", "procedure": "as §5"}, "[8]": {"test_system": "pATM S1981", "test": "Western blot of cell-free NHEJ reaction (MCF7 nuclear extract)", "type": "biochemical, human", "conditions": "MCF7 nuclear extract with linear dsDNA", "procedure": "as §5"}, "[9]": {"test_system": "NHEJ in Cal-51 cells", "test": "Cellular NHEJ assay with GFP reporter gene", "type": "cell-based, human", "conditions": "1 μM", "procedure": "as §1, §2, §3, §4"}, "[10]": {"test_system": "NHEJ in Cal-51 cells", "test": "384-well image-based cellular NHEJ assay", "type": "cell-based", "conditions": "Homo sapiens; Cal-51, n=3", "excerpt": "as §3\nas §4, with “microscope. NHEJ phenylmethylsulfonylfluoride (PMSF) and protease activity was calculated by the number of GFP-positive inhibitor cocktail) followed by sonication 3 times and a cells in cells transfected with pEGFP-EcoRI divided by final spin at 20,000 rpm for 30 minutes to generate a clear that in cells transfected with pEGFP-StuI, multiplied by lysate. To perform the immunoprecipitation, enzymes were 100.” for “microscope.”\n(§6) or FLAG tags. Beads plus enzymes were then washed 3 developed. Different cell lines were transfected using times with lysis buffer and spun down at 1000 rpm for the procedure described above and subsequently seeded 1 minute. Beads plus enzymes were resuspended in lysis into 384-well plates at optimized density for individual buffer and kept at 4°C until assay. Assays for ATM and cell lines. Cells were then treated with compounds at ATR were conducted in a 33P radioactive assay format. increasing concentrations. GFP+ cells were imaged Assay buffer contained the following reagents: 1 mg/mL and quantitated using the IncuCyte (Essen Bioscience, GST-p53 (glutathione S-transferase–p53 fusion protein) Ann Arbor, MI). NHEJ activity was then normalized substrate (expressed in-house), 20 μg/mL calf thymus to the DMSO control and fitted to the Sigmoidal Dose-DNA activator (Sigma), 100 μg/mL BSA, 200 μM EGTA Response Model (IDBS XLFit Model 205; London, UK)"}, "[11]": {"test_system": "NHEJ in MDA-MB-231 breast cancer cells", "test": "384-well image-based cellular NHEJ assay", "type": "cell-based", "conditions": "Homo sapiens; MDA-MB-231, n=3", "excerpt": "as §3\nas §4, with “microscope. NHEJ phenylmethylsulfonylfluoride (PMSF) and protease activity was calculated by the number of GFP-positive inhibitor cocktail) followed by sonication 3 times and a cells in cells transfected with pEGFP-EcoRI divided by final spin at 20,000 rpm for 30 minutes to generate a clear that in cells transfected with pEGFP-StuI, multiplied by lysate. To perform the immunoprecipitation, enzymes were 100.” for “microscope.”\nas §6"}, "[12]": {"test_system": "NHEJ in PC3 prostate cancer cells", "test": "384-well image-based cellular NHEJ assay", "type": "cell-based", "conditions": "Homo sapiens; PC3, n=3", "excerpt": "as §3\nas §4, with “microscope. NHEJ phenylmethylsulfonylfluoride (PMSF) and protease activity was calculated by the number of GFP-positive inhibitor cocktail) followed by sonication 3 times and a cells in cells transfected with pEGFP-EcoRI divided by final spin at 20,000 rpm for 30 minutes to generate a clear that in cells transfected with pEGFP-StuI, multiplied by lysate. To perform the immunoprecipitation, enzymes were 100.” for “microscope.”\nas §6"}, "[13]": {"test_system": "NHEJ in HCT116 colorectal cancer cells", "test": "384-well image-based cellular NHEJ assay", "type": "cell-based", "conditions": "Homo sapiens, HCT-116; HCT116, n=3", "excerpt": "as §3\nas §4, with “microscope. NHEJ phenylmethylsulfonylfluoride (PMSF) and protease activity was calculated by the number of GFP-positive inhibitor cocktail) followed by sonication 3 times and a cells in cells transfected with pEGFP-EcoRI divided by final spin at 20,000 rpm for 30 minutes to generate a clear that in cells transfected with pEGFP-StuI, multiplied by lysate. To perform the immunoprecipitation, enzymes were 100.” for “microscope.”\nas §6"}}, "data": [{"smiles": "CCN1C(=O)CNc2ncc(-c3ccc(-c4nc[nH]n4)nc3C)nc21", "note": "[CC-115, 1-ethyl-7-(2-methyl-6-(1H-1,2,4-triazol-3-yl)pyridin-3yl)-3,4-dihydropyrazino[2,3-b]pyrazin-2(1H)-one]", "values": [{"measurement": "IC50", "setting": "[1]", "value": "1 to 7", "unit": "µM"}, {"measurement": "ATM activity (pATM S1981 and pNbs1 S343)", "setting": "[2]", "value": "significantly inhibited"}, {"measurement": "DNA-PK activity (pDNA-PK S2056)", "setting": "[3]", "value": "significantly inhibited"}, {"measurement": "IC50", "setting": "[4]", "value": "0.16 ± 0.01", "unit": "µM"}, {"measurement": "inhibition of NHEJ activity, cell-free", "setting": "[5]; 0.5 μM", "value": "Partial inhibition"}, {"measurement": "inhibition of NHEJ activity, cell-free", "setting": "[5]; 5 μM", "value": "complete inhibition"}, {"measurement": "inhibition of pDNA-PK S2056, cell-free", "setting": "[6]", "value": "inhibited"}, {"measurement": "inhibition of pChk2 T68, cell-free", "setting": "[7]", "value": "also inhibited"}, {"measurement": "inhibition of pATM S1981, cell-free", "setting": "[8]", "value": "reduction"}, {"measurement": "GFP-positive cells (pEGFP-EcoRI)", "setting": "[9]", "value": 1.25, "unit": "%"}, {"measurement": "GFP-positive cells (pEGFP-StuI)", "setting": "[9]; DMSO 25.71%", "value": 10.47, "unit": "%"}, {"measurement": "IC50", "setting": "[10]", "value": "3.15 ± 1.33", "unit": "µM"}, {"measurement": "IC50", "setting": "[11]", "value": "2.16 ± 0.91", "unit": "µM"}, {"measurement": "IC50", "setting": "[12]", "value": "2.72 ± 1.69", "unit": "µM"}, {"measurement": "IC50", "setting": "[13]", "value": "6.35 ± 2.98", "unit": "µM"}]}]}
